Experimental data: patent US5314999A, “Derivatives of basic polyene macrolides and their preparation” (Laboratoires Mayoly-Spindler, priority 1989, dated 1994)
Structures can show the parent of a compound that is named as a salt. Where two headings read alike, the source gives them in different places.

Columns and labels:
Aspergillus flavus = experiment: Diffusion method in agar-agar medium (Sabouraud agar-agar); type: cell-based; conditions: for IC (1 cm inhibition zone): Aspergillus flavus, read-out: concentration giving a growth inhibition of 1 cm around a disc in solid medium
Protocol: (§1) A.2 : Study of the antibiotic efficiency of amphotericine B derivatives in agar-agar medium against Aspergillus
(§2) The antibiotic activity was tested by the diffusion method in agar-agar medium (Sabouraud agar-agar).
(§3) The efficiency of each molecule was determined by the size of the growth-inhibiting zone around a WHATMAN 3M paper disc impregnated with the antibiotic substance of a given concentration.
(§4) A suspension of Aspergillus spores in a broth was prepared, 0.2 ml of this suspension was used to inoculate at its surface an agar-agar medium which was solidified in such a manner that a homogeneous growth layer was obtained. After spreading, the WHATMAN 3M paper discs (diameter: 1 cm) were placed on the surface of the agar-agar, and then impregnated with 0.1 ml of the antibiotic substance at different concentrations.

Aspergillus fumigatus = experiment: as above; type: cell-based; conditions: for IC (1 cm inhibition zone): Aspergillus fumigatus, read-out: concentration giving a growth inhibition of 1 cm around a disc in solid medium
Protocol: as §1, §2, §3, §4

[1] = Toxicity on nucleated cells, mice T lymph gland cells; type: cell-based; conditions: mouse, 1 hour 30, trypan blue, read-out: LD 50 (concentration leading to a mortality of 50%)
Protocol: (§5) B.2: Study of the toxicity on nucleated cells
(§6) The solutions of the amphotericine B derivatives are prepared similarly to those mentioned in paragraph B.1.
(§7) The cells are prepared by placing 20 ml of blood diluted to 1/2 with 0.9% NaCl into a tube together with 10 ml of Ficoll-hypaque, and the mixture is centrifuged at 2000 rpm for 30 minutes. The cell nuclei are recovered and washed twice with PBS buffer containing 5% of foetal calf serum.
(§8) The cells are prepared by suspending 1.14×10^6 cells/ml in RPMI 1640 containing 2.5% of foetal calf serum and by filling each well with 150 μl. 50 μl of each dilution of the derivatives are added and also one control (5% glucose solution).
(§9) The cells are then incubated in a steam cabinet at a CO2 concentration of 5% for 1 hour 30 at 37° C. or at ambient temperature.
(§10) To evaluate the toxicity of the derivatives, a cell count in the presence of trypan blue is made, and the LD 50 (concentration of the derivative leading to a mortality of 50%) is calculated with respect to the control (5% glucose solution) for each concentration of each derivative.

red corpuscles [2] = experiment: Toxicity on red corpuscles (lysis), human; type: cell-based; conditions: 37° C., 1 hour 30, 90 min, 90 min, read-out: LD 50 (dose which leads to lysis in 50% of the erythrocytes)
Protocol: (§11) B.1: Study of the toxicity on red corpuscles
(§12) All the solutions of the AmB derivatives according to the invention were prepared immediately before use by diluting 4 mg of substance in 100 μl of 5% glucose solution, and then, after 15 minutes protected from light, 100 μl of sterile distilled water are added, and the mixture is made up to stock solutions of 4 mg/ml with a 5% glucose solution. For comparative study of the effects of AmB, 4 mg of FUNGIZONE are diluted with 1 ml of 5% glucose.
(§13) The cells are prepared by placing 1 ml of a peripheral blood sample into a tube together with Ficollhypaque to remove the lymphocytes, and then centrifuging the mixture at 2000 rpm for 20 minutes. The remaining red corpuscles are recovered, washed once with 0.9% NaCl and then twice with 150 Mm KCl, 0.5 Mm tris-HCl, pH 7.4.
(§14) A 1.25% suspension is then prepared with 150 mM KCl solution, 0.5 mM tris-HCl, pH 7.4, and 150 μl thereof are distributed in wells along with 50 μl of each of the dilutions of the derivatives, plus a control well (5% glucose solution).
(§15) The cells are then incubated at 37° C. in a steam cabinet for 1 hour 30.
(§16) To evaluate the cell lysis, haemoglobin is essayed by removing 100 μl of the supernatant in each well and diluting the sample with 1 ml of distilled water.
(§17) The haemoglobin concentration is calculated by measuring the optical density at 540 nm and taking into account the absorption of the derivatives of amphotericine B.
(§18) LD 50 is the dose which leads to lysis in 50% of the erythrocytes (a control of 100% lysis is obtained with distilled water, and reference lysis of 0% is obtained with the 5% glucose solution).

Cryptoccocus neoformans = experiment: Growth inhibition in liquid medium (Sabouraud broth); type: cell-based; conditions: read-out: IC 50 (growth-inhibiting concentration of 50%)
Protocol: (§19) A.1 : Study of the antibiotic efficiency of AmB derivatives in liquid medium against different yeasts
(§20) The antibiotic efficiency was tested by the growth inhibition method in liquid medium (Sabouraud broth) in the presence of different concentrations of the derivatives studied.
(§21) A yeast suspension was cultivated in a broth in such a manner that about 1×10^2 cell/ml were obtained.
(§22) The tubes containing the different concentrations of antifungal substance were inoculated with the same amount of yeast cells, and were then incubated at 28° C. for 18 hours with stirring. For each concentration of antifungal substance, two identical tubes were prepared.
(§23) The inhibition of fungal growth corresponding to the different concentrations was evaluated for each molecule by spectrophotometry at 620 nm and expressed in percent with respect to a reference solution without antifungal substance.

Candida albicans = experiment: as above; type: cell-based; conditions: read-out: IC 50 (growth-inhibiting concentration of 50%)
Protocol: as §19, §20, §21, §22, §23

Candida albicans B 2630 = experiment: as above; type: cell-based; conditions: read-out: IC 50 (growth-inhibiting concentration of 50%)
Protocol: as §19, §20, §21, §22, §23

Saccharomyces cerevisiae = experiment: as above; type: cell-based; conditions: Saccharomyces cerevisiae, 18 h, read-out: IC 50 (growth-inhibiting concentration of 50%)
Protocol: as §19, §20, §21, §22, §23

Pytirosporum orbiculare = experiment: as above; type: cell-based; conditions: read-out: IC 50 (growth-inhibiting concentration of 50%)
Protocol: as §19, §20, §21, §22, §23

DAUDI (human lymphoma B) = experiment: Toxicity on nucleated cells, DAUDI human lymphoma B; type: cell-based; conditions: 1 hour 30, trypan blue, 90 min, read-out: LD 50 (concentration leading to a mortality of 50%)
[3] = Toxicity on nucleated cells, human bone marrow; type: cell-based; conditions: 1 hour 30, trypan blue, read-out: LD 50 (concentration leading to a mortality of 50%)
Protocol: as §5, §6, §7, §8, §9, §10

[4] = Toxicity on nucleated cells, mice thymocytes; type: cell-based; conditions: mouse, thymocytes, 1 hour 30, trypan blue, read-out: LD 50 (concentration leading to a mortality of 50%)
[5] = Toxicity on nucleated cells, human thymocytes; type: cell-based; conditions: 1 hour 30, trypan blue, read-out: LD 50 (concentration leading to a mortality of 50%)
Protocol: as §5, §6, §7, §8, §9, §10

[6] = Toxicity on nucleated cells, X 63 mice lymphoma B; type: cell-based; conditions: mouse, x 63 lymphoma cells, 1 hour 30, trypan blue, read-out: LD 50 (concentration leading to a mortality of 50%)
[7] = Toxicity on nucleated cells, mice B lymph gland cells; type: cell-based; conditions: mouse, 1 hour 30, trypan blue, read-out: LD 50 (concentration leading to a mortality of 50%)
Protocol: as §5, §6, §7, §8, §9, §10

[8] = Toxicity on red corpuscles (lysis), mice; type: cell-based; conditions: mouse, red blood cells, 37° C., 1 hour 30, read-out: LD 50 (dose which leads to lysis in 50% of the erythrocytes)
Protocol: as §11, §12, §13, §14, §15, §16, §17, §18

PBL = experiment: Toxicity on nucleated cells, human PBL; type: cell-based; conditions: 90 min
Protocol: as §5, §6, §7, §8, §9, §10

[9] = Toxicity on red corpuscles (lysis), human; type: cell-based; conditions: human, red corpuscles, 37° C., 1 hour 30, read-out: LD 50 (dose which leads to lysis in 50% of the erythrocytes)
Protocol: as §11, §12, §13, §14, §15, §16, §17, §18

[10] = Toxicity on nucleated cells, DAUDI human lymphoma B; type: cell-based; conditions: human, daudi lymphoma b cells, 1 hour 30, trypan blue, read-out: LD 50 (concentration leading to a mortality of 50%)
X 63 (mice lymphoma B) = experiment: Toxicity on nucleated cells, X 63 mice lymphoma B; type: cell-based; conditions: 1 hour 30, trypan blue, 90 min, read-out: LD 50 (concentration leading to a mortality of 50%)
red corpuscles [11] = experiment: Toxicity on red corpuscles (lysis), mice; type: cell-based; conditions: 37° C., 1 hour 30, 90 min, 90 min, read-out: LD 50 (dose which leads to lysis in 50% of the erythrocytes)
Protocol: as §11, §12, §13, §14, §15, §16, §17, §18

[12] = Solubility of the AmB derivatives; type: physicochemical; conditions: 5% glucose solution, ambient temperature
Protocol: C.2. Solubility of the AmB derivatives according to the present invention
AmB or the derivatives obtained are dissolved at ambient temperature in a 5% glucose solution up to saturation.

[13] = background; cited from earlier work
[14] = Toxicity on nucleated cells, human PBL; type: cell-based; conditions: human, pbl, human PBLs; AmB 12 derivative, comparison of different catalysts (Table 4); read-out: LD 50
Protocol: as §5, §6, §7, §8, §9, §10

[15] = Sabouraud agar-agar, disc diameter 1 cm, 0.1 ml
[16] = Sabouraud broth, 28° C., 18 hours
[17] = human PBL, 1 hour 30, trypan blue, read-out: LD 50 (concentration leading to a mortality of 50%)

## C[C@@H]1[C@H](O)[C@@H](C)/C=C/C=C/C=C/C=C/C=C/C=C/C=C/[C@H](O[C@@H]2O[C@H](C)[C@@H](O)[C@H](NCC3(O)O[C@H](C(N)=O)[C@@H](O)[C@@H]3O)[C@@H]2O)C[C@@H]2O[C@](O)(C[C@@H](O)C[C@@H](O)[C@H](O)CC[C@@H](O)C[C@@H](O)CC(=O)O[C@H]1C)C[C@H](O)[C@H]2C(=O)O (stereo partly drawn) [AmB 12 F, 1-amino-1-deoxy-D-arabinoglucuronamidyl-AmB]
Aspergillus flavus; [15]
  concentration giving a growth inhibition of 1 cm around a disc in solid medium: 3 × 10^-4 molarity
Aspergillus fumigatus; [15]
  IC (1 cm inhibition zone): 80 µM
[1]
  CC50 at 1.5 h: 10 µM
Red corpuscles [2]
  HC50: 100 µM
Cryptoccocus neoformans; 18 h, Sabouraud broth, 28° C., 18 hours
  IC50: 0.065 µM
Candida albicans; Candida albicans, 18 h, Sabouraud broth, 28° C., 18 hours
  IC50: 0.09 µM
Candida albicans B 2630; B2630, Sabouraud broth, 28° C., 18 hours
  IC50: 0.24 µM
Saccharomyces cerevisiae; [16]
  IC50: 1.1 µM
Pytirosporum orbiculare; [16]
  IC50: 0.096 µM
DAUDI (human lymphoma B)
  CC50: > 1000 µM
[3]
  CC50 at 1.5 h: > 1000 µM
[4]
  CC50 at 1.5 h: 4 µM
[5]
  CC50 at 1.5 h: > 300 µM
[6]
  CC50 at 1.5 h: > 1000 µM
[7]
  CC50 at 1.5 h: 10 µM
[8]
  HC50 at 1.5 h: 20 µM
PBL; [17]
  CC50: > 1000 µM
PBL; human PBLs, AmB 12 derivative, comparison of different catalysts (Table 4), listed as Oxalic acid NMG salt, read-out: LD 50 (the source's name)
  CC50: > 1000 µM

## CC1OC[C@@H](O)[C@H]([C@H](O)C(=O)CN[C@@H]2[C@H](O)[C@H](O[C@H]3/C=C/C=C/C=C/C=C/C=C/C=C/C=C/[C@H](C)[C@@H](O)[C@@H](C)[C@H](C)OC(=O)C[C@H](O)C[C@H](O)CC[C@@H](O)[C@H](O)C[C@H](O)C[C@]4(O)C[C@H](O)[C@@H](C(=O)O)[C@H](C3)O4)O[C@H](C)[C@H]2O)O1 (stereo partly drawn) [AmB 22 F, 1-deoxy-1-amino-4,6-O-ethylidene-D-fructosyl-AmB]
Aspergillus flavus; [15]
  IC (1 cm inhibition zone): 150 µM
Aspergillus fumigatus; [15]
  concentration giving a growth inhibition of 1 cm around a disc in solid medium: 5 × 10^-4 molarity
[1]
  CC50 at 1.5 h: 20 µM
[9]
  HC50 at 1.5 h: 100 µM
Cryptoccocus neoformans; [16]
  IC50: 0.25 µM
Candida albicans; [16]
  IC50: 0.56 µM
Saccharomyces cerevisiae; [16]
  IC50: 1.6 µM
Pytirosporum orbiculare; [16]
  IC50: 0.18 µM
[10]
  CC50 at 1.5 h: > 1000 µM
[3]
  CC50 at 1.5 h: 1000 µM
[4]
  CC50 at 1.5 h: 3.5 µM
[5]
  CC50 at 1.5 h: > 300 µM
X 63 (mice lymphoma B)
  CC50: > 1000 µM
[7]
  CC50 at 1.5 h: 20 µM
Red corpuscles [11]
  HC50: 90 µM
PBL; [17]
  CC50: > 1000 µM

## C[C@@H]1[C@H](O)[C@@H](C)/C=C/C=C/C=C/C=C/C=C/C=C/C=C/[C@H](O[C@@H]2O[C@H](C)[C@@H](O)[C@H](N)[C@@H]2O)C[C@@H]2O[C@](O)(C[C@@H](O)C[C@@H](O)[C@H](O)CC[C@@H](O)C[C@@H](O)CC(=O)O[C@H]1C)C[C@H](O)[C@H]2C(=O)O [AmB, amphotericine B, reference compound]
Aspergillus flavus
  IC (1 cm inhibition zone): 50 µM
Aspergillus fumigatus
  IC (1 cm inhibition zone): 50 µM
[12]
  solubility (in words): insoluble
Cryptoccocus neoformans; 18 h
  IC50: 0.08 µM
Candida albicans; Candida albicans, 18 h
  IC50: 0.08 µM
Candida albicans B 2630; B2630, 18 h
  IC50: 0.35 µM
Saccharomyces cerevisiae
  IC50: 0.54 µM
Pytirosporum orbiculare; 18 h
  IC50: < 0.01 µM
[13]
  solubility in water (in words): sparingly soluble in water

## C[C@@H]1[C@H](O)[C@@H](C)/C=C/C=C/C=C/C=C/C=C/C=C/C=C/[C@H](O[C@@H]2O[C@H](C)[C@@H](O)[C@H](NC3O[C@H](C(N)=O)[C@@H](O)[C@H](O)[C@H]3O)[C@@H]2O)C[C@@H]2O[C@](O)(C[C@@H](O)C[C@@H](O)[C@H](O)CC[C@@H](O)C[C@@H](O)CC(=O)O[C@H]1C)C[C@H](O)[C@H]2C(=O)O (some centres unmarked) [Uncatalyzed NMG salt, reference compound]
[14]
  CC50 at 1.5 h: 80 µM
